In US7615569B2, “Inhibitors of ion channels” (Icagen, Inc., priority 2005, dated 2009):

The compounds below were run against T1, hSCN3A (Homo sapiens, UniProt Q9NY46) (assay: SCN3A inhibitory activity in HEK cells stably expressing hSCN3A (whole-cell patch clamp / radiotracer efflux HTS)). Details: HEK cells stably transfected with hSCN3A.
T1 construct: expressed in transfected cells
Assay type: cell-based

T1 sequence (Q9NY46 whole entry): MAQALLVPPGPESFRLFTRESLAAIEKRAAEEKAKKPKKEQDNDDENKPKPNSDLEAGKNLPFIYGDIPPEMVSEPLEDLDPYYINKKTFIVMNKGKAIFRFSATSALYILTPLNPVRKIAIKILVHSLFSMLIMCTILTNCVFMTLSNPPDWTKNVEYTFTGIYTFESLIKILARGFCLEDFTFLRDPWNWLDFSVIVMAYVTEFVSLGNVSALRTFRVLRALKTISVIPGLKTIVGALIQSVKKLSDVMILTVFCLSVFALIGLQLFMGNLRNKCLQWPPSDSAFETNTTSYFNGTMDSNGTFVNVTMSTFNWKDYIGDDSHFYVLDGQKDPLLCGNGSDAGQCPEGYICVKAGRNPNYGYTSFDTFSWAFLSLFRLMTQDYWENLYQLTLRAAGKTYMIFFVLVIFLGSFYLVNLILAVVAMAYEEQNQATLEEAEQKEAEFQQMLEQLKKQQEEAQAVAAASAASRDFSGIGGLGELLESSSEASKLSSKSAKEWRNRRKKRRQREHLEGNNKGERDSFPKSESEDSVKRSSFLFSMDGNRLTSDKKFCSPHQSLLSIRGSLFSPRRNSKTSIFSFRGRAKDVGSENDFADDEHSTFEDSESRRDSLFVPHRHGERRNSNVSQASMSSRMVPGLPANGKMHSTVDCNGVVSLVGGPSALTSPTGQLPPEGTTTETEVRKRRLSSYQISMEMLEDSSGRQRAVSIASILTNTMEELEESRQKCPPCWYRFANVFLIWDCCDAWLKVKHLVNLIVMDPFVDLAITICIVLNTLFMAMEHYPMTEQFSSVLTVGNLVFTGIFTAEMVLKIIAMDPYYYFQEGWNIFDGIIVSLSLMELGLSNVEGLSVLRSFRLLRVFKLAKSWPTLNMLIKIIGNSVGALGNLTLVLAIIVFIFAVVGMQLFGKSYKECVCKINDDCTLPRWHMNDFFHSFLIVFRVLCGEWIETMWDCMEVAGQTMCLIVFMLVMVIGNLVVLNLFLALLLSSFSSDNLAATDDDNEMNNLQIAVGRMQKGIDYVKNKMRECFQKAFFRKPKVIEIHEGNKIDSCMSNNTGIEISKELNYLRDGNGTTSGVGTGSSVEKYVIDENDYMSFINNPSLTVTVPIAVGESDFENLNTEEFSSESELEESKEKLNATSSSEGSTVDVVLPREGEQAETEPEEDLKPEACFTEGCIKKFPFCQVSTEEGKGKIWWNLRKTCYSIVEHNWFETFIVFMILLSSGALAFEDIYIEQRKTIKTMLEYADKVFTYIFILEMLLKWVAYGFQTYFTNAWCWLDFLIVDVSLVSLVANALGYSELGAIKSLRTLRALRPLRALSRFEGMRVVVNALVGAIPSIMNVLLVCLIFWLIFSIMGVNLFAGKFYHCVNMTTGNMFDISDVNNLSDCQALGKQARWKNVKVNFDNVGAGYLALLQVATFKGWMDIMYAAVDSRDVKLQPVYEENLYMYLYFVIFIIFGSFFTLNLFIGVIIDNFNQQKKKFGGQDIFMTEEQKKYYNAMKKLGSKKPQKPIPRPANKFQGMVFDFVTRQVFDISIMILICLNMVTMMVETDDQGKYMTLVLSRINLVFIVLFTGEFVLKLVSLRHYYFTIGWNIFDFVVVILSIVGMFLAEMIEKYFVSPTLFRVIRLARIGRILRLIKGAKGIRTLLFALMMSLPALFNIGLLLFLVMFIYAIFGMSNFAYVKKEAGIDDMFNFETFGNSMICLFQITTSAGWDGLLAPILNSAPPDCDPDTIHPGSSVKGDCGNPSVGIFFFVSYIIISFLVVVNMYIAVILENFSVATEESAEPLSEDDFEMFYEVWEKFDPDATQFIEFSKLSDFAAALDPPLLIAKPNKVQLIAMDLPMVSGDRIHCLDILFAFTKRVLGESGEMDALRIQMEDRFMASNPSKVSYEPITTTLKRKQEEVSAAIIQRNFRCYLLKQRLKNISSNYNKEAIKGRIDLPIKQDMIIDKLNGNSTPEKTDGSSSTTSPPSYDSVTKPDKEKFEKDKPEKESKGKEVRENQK

Row | Compound | IC50
1 | O=S(=O)(Nc1nccs1)c1ccc(-c2nnc(Cc3cccc(Cl)c3)[nH]2)cc1 [Compound 96, 4-[5-(3-Chloro-benzyl)-4H-[1,2,4]triazol-3-yl]-N-thiazol-2-yl-benzenesulfonamide] | 100 to 500 nM
2 | COCn1c(Cc2ccc(Cl)c(Cl)c2)nnc1-c1ccc(S(=O)(=O)Nc2nccs2)cc1 [Compound 97, 4-[5-(3,4-Dichloro-benzyl)-4-methoxymethyl-4H-[1,2,4]triazol-3-yl]-N-thiazol-2-yl-benzenesulfonamide] | 500 to 1000 nM
3 | O=S(=O)(Nc1nccs1)c1ccc(-c2nc(C(c3ccccc3)C3CCCCC3)c[nH]2)cc1 (stereo not drawn) [Compound 47, 4-[4-(Cyclohexyl-phenyl-methyl)-1H-imidazol-2-yl]-N-thiazol-2-yl-benzenesulfonamide] | 100 to 500 nM
4 | O=S(=O)(Nc1nccs1)c1ccc(-c2nc(Cc3ccc(Cl)cc3)n[nH]2)cc1F [Compound 114, 4-[5-(4-Chloro-benzyl)-2H-[1,2,4]triazol-3-yl]-2-fluoro-n-thiazol-2-yl-benzenesulfonamide] | < 100 nM
5 | COc1ccc(C2(c3c[nH]c(-c4ccc(S(=O)(=O)Nc5nccs5)cc4)n3)CC2)cc1 [Compound 44, 4-{4-[1-(4-Methoxy-phenyl)-cyclopropyl]-1H-imidazol-2-yl}-N-thiazol-2-yl-benzenesulfonamide] | 500 to 1000 nM
6 | Cc1cccc(Cc2c[nH]c(-c3ccc(S(=O)(=O)Nc4nccs4)cc3)n2)c1 [Compound 27, 4-[4-(3-Methyl-benzyl)-1H-imidazol-2-yl]-N-thiazol-2-yl-benzenesulfonamide] | 100 to 500 nM
7 | O=S(=O)(Nc1nccs1)c1ccc(-c2nnc(C(c3ccccc3)c3ccccc3)[nH]2)cc1 [Compound 3, 4-(5-Benzhydryl-4H-[1,2,4]triazol-3-yl)-N-thiazol-2-yl-benzenesulfonamide] | 100 to 500 nM
8 | O=S(=O)(Nc1nccs1)c1ccc(-c2nc(CCc3ccc(C(F)(F)F)cc3)c[nH]2)cc1 [Compound 19, N-Thiazol-2-yl-4-{4-[2-(4-trifluoromethyl-phenyl)-ethyl]-1H-imidazol-2-yl}-benzenesulfonamide] | 100 to 500 nM
9 | O=S(=O)(Nc1nccs1)c1ccc(-c2nc(Cc3ccccc3C(F)(F)F)c[nH]2)cc1 [Compound 51, N-Thiazol-2-yl-4-[4-(2-trifluoromethyl-benzyl)-1H-imidazol-2-yl]-benzenesulfonamide] | 100 to 500 nM
10 | O=S(=O)(Nc1nccs1)c1ccc(-c2ncc(Cc3ccc(Cl)cc3)[nH]2)cc1 [Compound 8, 4-[5-(4-Chloro-benzyl)-1H-imidazol-2-yl]-N-thiazol-2-yl-benzenesulfonamide] | 100 to 500 nM
11 | O=S(=O)(Nc1nccs1)c1ccc(-c2nc3ccccc3[nH]2)cc1 [Compound 10, 4-(1H-Benzoimidazol-2-yl)-N-thiazol-2-yl-benzenesulfonamide] | > 1000 nM
12 | O=S(=O)(Nc1nccs1)c1ccc(-c2nc(COc3ncc(C(F)(F)F)cc3Cl)n[nH]2)cc1 [Compound 117, 4-[5-(3-Chloro-5-trifluoromethyl-pyridin-2-yloxymethyl)-2H-[1,2,4]triazol-3-yl]-n-thiazol-2-yl-benzenesulfonamide] | 500 to 1000 nM
13 | O=S(=O)(Nc1nccs1)c1ccc(-c2ncc(C(c3ccccc3)c3ccccc3)[nH]2)cc1 [Compound 6, 4-(5-Benzhydryl-1H-imidazol-2-yl)-N-thiazol-2-yl-benzenesulfonamide] | 100 to 500 nM
14 | CC1(c2ccc(S(=O)(=O)Nc3nccs3)cc2)C(=O)NC(=O)N1Cc1ccc(Cl)c(Cl)c1 (stereo not drawn) [Compound 99, 4-[3-(3,4-Dichloro-benzyl)-4-methyl-2,5-dioxo-imidazolidin-4-yl]-N-thiazol-2-yl-benzenesulfonamide] | > 1000 nM
15 | O=S(=O)(Nc1nccs1)c1ccc(-c2nc(CCc3cc(Cl)cc(Cl)c3)c(I)[nH]2)cc1 [Compound 68, 4-{4-[2-(3,5-Dichloro-phenyl)-ethyl]-5-iodo-1H-imidazol-2-yl}-N-thiazol-2-yl-benzenesulfonamide] | < 100 nM
16 | O=S(=O)(Nc1nccs1)c1ccc(-c2nnc(COc3ncc(Cl)cc3Cl)[nH]2)cc1 [Compound 120, 4-[5-(3,5-Dichloro-pyridin-2-yloxymethyl)-4H-[1,2,4]triazol-3-yl]-n-thiazol-2-yl-benzenesulfonamide] | > 1000 nM
17 | O=S(=O)(Nc1nccs1)c1ccc(-c2cc(CCCOc3ccc(Cl)cc3Cl)[nH]n2)cc1 [Compound 123, 4-{5-[3-(2,4-Dichloro-phenoxy)-propyl]-1H-pyrazol-3-yl}-N-thiazol-2-yl-benzenesulfonamide] | 100 to 500 nM
18 | O=S(=O)(Nc1nccs1)c1ccc(-c2nc(Cc3ccc4c(c3)OCO4)c[nH]2)cc1 [Compound 49, 4-(4-Benzo[1,3]dioxol-5-ylmethyl-1H-imidazol-2-yl)-N-thiazol-2-yl-benzenesulfonamide] | 500 to 1000 nM
19 | Cc1ccc(C)c(CCc2c[nH]c(-c3ccc(S(=O)(=O)Nc4nccs4)cc3)n2)c1 [Compound 29, 4-{4-[2-(2,5-Dimethyl-phenyl)-ethyl]-1H-imidazol-2-yl}-N-thiazol-2-yl-benzenesulfonamide] | 100 to 500 nM
20 | O=S(=O)(Nc1nccs1)c1ccc(-c2nc(-c3ccccc3)c(-c3ccccc3)[nH]2)cc1 [Compound 1, 4-(4,5-Diphenyl-1H-imidazol-2-yl)-N-thiazol-2-yl-benzenesulfonamide] | 100 to 500 nM

Row | Compound | IC50
21 | O=S(=O)(Nc1nccs1)c1ccc(-c2nc(Cc3cccc(OC(F)(F)F)c3)c[nH]2)cc1 [Compound 43, N-Thiazol-2-yl-4-[4-(3-trifluoromethoxy-benzyl)-1H-imidazol-2-yl]-benzenesulfonamide] | 500 to 1000 nM
22 | CC1(Cc2ccc(Cl)c(Cl)c2)N=C(c2ccc(S(=O)(=O)Nc3nccs3)cc2)NC1=O (stereo not drawn) [Compound 107, 4-[4-(3,4-Dichloro-benzyl)-4-methyl-5-oxo-4,5-dihydro-1H-imidazol-2-yl]-N-thiazol-2-yl-benzenesulfonamide] | > 1000 nM
23 | O=S(=O)(Nc1nccs1)c1ccc(-c2nc(Cc3ccc(Cl)c(Cl)c3)c[nH]2)cc1 [Compound 36, 4-[4-(3,4-Dichloro-benzyl)-1H-imidazol-2-yl]-N-thiazol-2-yl-benzenesulfonamide] | < 100 nM
24 | O=S(=O)(Nc1nccs1)c1ccc(-c2nnc(COc3ccc(C(F)(F)F)cn3)[nH]2)cc1 [Compound 118, N-thiazol-2-yl-4-[5-(5-trifluoromethyl-pyridin-2-yloxymethyl)-4H-[1,2,4]triazol-3-yl]-benzenesulfonamide] | > 1000 nM
25 | Cc1ccc(Cc2c[nH]c(-c3ccc(S(=O)(=O)Nc4nccs4)cc3)n2)cc1 [Compound 32, 4-[4-(4-Methyl-benzyl)-1H-imidazol-2-yl]-N-thiazol-2-yl-benzenesulfonamide] | > 1000 nM
26 | O=S(=O)(Nc1nccs1)c1ccc(-c2nc(Cc3ccccc3F)c[nH]2)cc1 [Compound 35, 4-[4-(2-Fluoro-benzyl)-1H-imidazol-2-yl]-N-thiazol-2-yl-benzenesulfonamide] | 500 to 1000 nM
27 | O=S(=O)(Nc1nccs1)c1ccc(-c2nc(-c3ncc(C(F)(F)F)cc3Cl)n[nH]2)cc1F [Compound 116, 4-[5-(3-Chloro-5-trifluoromethyl-pyridin-2-yl)-2H-[1,2,4]triazol-3-yl]-2-fluoro-n-thiazol-2-yl-benzenesulfonamide] | 100 to 500 nM
28 | O=S(=O)(Nc1nccs1)c1ccc(-c2nc(CCc3cc(C(F)(F)F)ccc3C(F)(F)F)c[nH]2)cc1 [Compound 22, 4-{4-[2-(2,5-Bis-trifluoromethyl-phenyl)-ethyl]-1H-imidazol-2-yl}-N-thiazol-2-yl-benzenesulfonamide] | 100 to 500 nM
29 | O=S(=O)(Nc1nccs1)c1ccc(-c2nc(CCc3cc(Cl)cc(Cl)c3)c[nH]2)cc1 [Compound 26, 4-{4-[2-(3,5-Dichloro-phenyl)-ethyl]-1H-imidazol-2-yl}-N-thiazol-2-yl-benzenesulfonamide] | < 100 nM
30 | O=S(=O)(Nc1nccs1)c1ccc(-c2nc(CCc3ccc(F)cc3)c[nH]2)cc1 [Compound 15, 4-{4-[2-(4-Fluoro-phenyl)-ethyl]-1H-imidazol-2-yl}-N-thiazol-2-yl-benzenesulfonamide] | 100 to 500 nM
31 | O=S(=O)(Nc1nccs1)c1ccc(-c2nc(CCc3ccccc3Cl)c[nH]2)cc1 [Compound 14, 4-{4-[2-(2-Chloro-phenyl)-ethyl]-1H-imidazol-2-yl}-N-thiazol-2-yl-benzenesulfonamide] | 100 to 500 nM
32 | O=S(=O)(Nc1nccs1)c1ccc(-c2ncc(Cc3cc(F)cc(F)c3)[nH]2)cc1 [Compound 7, 4-[5-(3,5-Difluoro-benzyl)-1H-imidazol-2-yl]-N-thiazol-2-yl-benzenesulfonamide] | 100 to 500 nM
33 | O=S(=O)(Nc1nccs1)c1ccc(-c2nc(C3CCC(c4ccc(Cl)cc4)CC3)c[nH]2)cc1 (stereo not drawn) [Compound 12, 4-{4-[4-(4-Chloro-phenyl)-cyclohexyl]-1H-imidazol-2-yl}-N-thiazol-2-yl-benzenesulfonamide] | < 100 nM
34 | O=S(=O)(NCc1nccs1)c1ccc(-c2nc(Cc3cc(F)cc(F)c3)c[nH]2)cc1 [Compound 98, 4-[4-(3,5-Difluoro-benzyl)-1H-imidazol-2-yl]-N-thiazol-2-ylmethyl-benzenesulfonamide] | > 1000 nM
35 | Cc1nc(-c2ccc(S(=O)(=O)Nc3nccs3)cc2)[nH]c1-c1ccccc1 [Compound 4, 4-(4-Methyl-5-phenyl-1H-imidazol-2-yl)-N-thiazol-2-yl-benzenesulfonamide] | 500 to 1000 nM
36 | Cc1ccccc1CCc1c[nH]c(-c2ccc(S(=O)(=O)Nc3nccs3)cc2)n1 [Compound 33, N-Thiazol-2-yl-4-[4-(2-o-tolyl-ethyl)-1H-imidazol-2-yl]-benzenesulfonamide] | 500 to 1000 nM
37 | O=S(=O)(Cc1ncc(Cl)s1)c1ccc(-c2nc(CCc3cc(Cl)cc(Cl)c3)c[nH]2)cc1 [Compound 122, 5-Chloro-2-(4-{4-[2-(3,5-dichloro-phenyl)-ethyl]-1H-imidazol-2-yl}-benzenesulfonylmethyl)-thiazole] | < 100 nM
38 | O=S(=O)(Nc1nccs1)c1ccc(-c2nc(CCCOc3ccc(Cl)cc3Cl)c[nH]2)cc1 [Compound 11, 4-{4-[3-(2,4-Dichloro-phenoxy)-propyl]-1H-imidazol-2-yl}-N-thiazol-2-yl-benzenesulfonamide] | < 100 nM
39 | O=S(=O)(Nc1nccs1)c1ccc(-c2nc(C3(c4ccccc4)CC3)c[nH]2)cc1 [Compound 41, 4-[4-(1-Phenyl-cyclopropyl)-1H-imidazol-2-yl]-N-thiazol-2-yl-benzenesulfonamide] | > 1000 nM
